Measurements from patent US8173428B2, “LNA oligonucleotides and the treatment of cancer” (Santaris Pharma A/S, priority 2004, dated 2012).
Oligonucleotides are written 5' to 3', each unit as a sugar letter and its base; * is a phosphorothioate linkage, no mark a phosphodiester; rarer units and linkages stand in square brackets, end groups in braces. Plain capitals give the bases only. l = locked nucleic acid (LNA); [5mC] = 5-methylcytosine; d = 2'-deoxy (DNA)

Columns and labels:
mice = assay: i.v. acute toxicity study in mice; format: in vivo
From the text: For SEQ ID NO. 2 the following was found among others in preclinical toxicity studies: […]

Survivin mRNA = assay: Tumour analysis: Survivin mRNA after intratumoural injection; format: in vivo, Balb/cA-nu mice; conditions: 25 mg/kg intratumoral, 6 times over 2 weeks, sampling 24 hours after last dose, versus saline
Description: Model: PC-3 human prostate cancer cells (ECACC) are mixed with Matrigel and injected s.c. into both flanks of female Balb/cA-nu mice on Day 0.
Administration: Oligonucleotides i.p. (see FIG. 8) or intratumoural (see FIG. 9), Taxol i.v., all according to schedule
Total RNA isolation: Approximately 20 mg tumour tissue was homogenized in 400 μl RTL buffer (Qiagen) supplemented with 1% mercaptoethanol. Total RNA was isolated using RNeasy mini kit (Qiagen) according to the manufacture's instructions.
cDNA synthesis: First strand synthesis was performed using OmniScript Reverse Transcriptase kit according to the manufacturer's instructions (Qiagen). […] Protein levels were analysed on individual tumours by western blotting (see FIG. 9). Real time PCR analysis: To determine the relative Survivin mRNA level treated and untreated tumours, the generated cDNA was used in quantitative PCR analysis using an iCycler from BioRad. The cDNA was diluted 5-fold and 8 μl was mixed with 52 μl Taqman probe master mix containing 30 μl Platinum Quantitative PCR SuperMix UDG 2×PCR master mix (Invitrogen), 3 μl 20× Taqman probe and primer mix (forward primer: 5′-[…]-3′ (SEQ ID NO. 29), final 0.9 μM. Reverse primer: 5′-[…]-3′ (SEQ ID NO. 30), final 0.6 μM and taqman probe: FAM-5′-[…]-TAMRA-3′ (SEQ ID NO. 31), final 0.1 μM) and 19 μl H2O. […]

15PC3 cells = assay: Cell cycle analysis by propidium iodide staining and FACS; format: cell-based, human; conditions: transfected 15PC3 cells exposed to different concentrations of Taxol
Description: Cell culturing: Human prostate cancer 15PC3 cells (kindly provided by Dr. F Baas, Neurozintuigen Laboratory, AMC, The Netherlands) were seeded to a density of 8×10E5 cells in T75-flasks and grown for two days at 37° C. and 5% CO2 in DMEM supplemented with 10% FBS, Glutamax and Gentamicin. Two days following seeding cells were transfected with 2-10 nM SEQ ID NO. 2 using Lipofectamine at a final conc. of 7.5 μg/ml. Transfections were carried out as described by Dean et al. (1994, JBC 269 p. 16416 16424). In short cells were incubated with Lipofectamine diluted in OptiMEM for 7-10 min followed by the addition of the oligonucleotide to total volume of 8.7 ml per T75 flask. 4 hours following transfection cells were washed in OptiMEM and grown at 37° C. for 12-96 hours in complete growth medium with or without the addition of 2-100 nM Taxol (Sigma Aldrich). Cells were harvested for either mRNA extraction, Caspase 3/7 assay or fixed, stained with PI and analysed by FACS analysis.
Cell culturing and transfections: As in example 13.
Fixation and PI staining: Cells were washed in PBS, harvested and resuspended in 100 μl in ice cold PBS. 900 μl ice cold 70% […] and fixed cells were kept at −20 until use. […]
SEQ ID NO. 2 transfected 15PC3 cells were exposed to different concentrations of Taxol and analysed by Propidium Iodide staining and subsequent FACS analysis (FIG. 7a-c). […]

## 5′-^MeCsTs^MeCsAsastscscsastsgsgs^MeCsAsGsc-3′ (l[5mC]*lT*l[5mC]*lA*dA*dT*dC*dC*dA*dT*dG*dG*l[5mC]*lA*lG*dC) [SEQ ID NO. 2]
mice
  maximum non-lethal dose: 1000 mg/kg
Survivin mRNA
  Survivin mRNA level in tumours: reduced levels of both mRNA and Survivin protein
15PC3 cells
  Cells trapped in the G2 or G4 phase, combination with Taxol: increasing amount of cells trapped in the G2 or even G4 phase
